Where two headings read alike, the source gives them in different places.
Key:
Factor XIa = Factor XIa (Homo sapiens, UniProt P03951); experiment: Factor XIa inhibition assay utilizing a fluorophore-quencher pair peptide substrate (FLINT); format: biochemical; settings: 30 min preincubation
Source text: Biological Example 1: Factor XIa Inhibition Assay Utilizing a Fluorophore-Quencher Pair Peptide Substrate
A fluorescence intensity (FLINT) based assay was used to monitor inhibition of Factor XIa. The peptide substrate, 5Fam-KLTRAETV-K5Tamra (purchased from New England Peptide) was chosen based on the […]. Conversion of zymogen […]. The custom peptide used in this assay was based on the Arg146 cleavage site of FXI. The peptide substrate was designed with a fluorophore-quencher pair, where the fluorescence is quenched until FXIa cleaves the 8-mer peptide after the Arg residue. The substrate KM was fit to a substrate inhibition model whereby kcat=0.86 s^−1, KM=12.4 μM, Ki=61.6 μM with an enzymatic efficiency, and kcat/KM=69523 M^−1s^−1.
The Factor XIa FLINT assay was used with the following 5Fam-KLTRAETV-K5Tamra assay buffer: 50 mM Tris, pH 7.5, 100 mM NaCl, 5 mM CaCl2, 0.1 mg/mL BSA, 0.03% CHAPS. Assay buffer was prepared by mixing all ingredients fresh. 5Fam-KLTRAETV-K5Tamra peptide substrate was first prepared at 10 mM in 100% DMSO, then diluted to 3 mM in 100% DMSO. Assay buffer was then added directly to the 3 mM stock of substrate to prepare the 30 μM 2× working concentration (15 μM final concentration). The 2× Factor XIa stock solution was prepared by diluting 6.562 μM stock in 1× assay buffer for a […].
Test compound(s) were run in an 11-point, 3-fold serial dilution with a final top compound concentration of 100 nM. Final DMSO in assay was 2%. FXIa was preincubated with compound for 30-minutes and then substrate was added to initiate the reaction. The assay was run with either end point (EP) reads at 30 min or kinetic (KIN) reads at 5 min intervals over 30 minutes. The time course was linear using 100 μM FXIa greater than 30 minutes. More specifically, the assay was run as follows: • 100 nL of 0.01 mM test compound was dispensed into black 384-well non-binding Greiner BioOne 784900 plate for 0.1 μM final concentration; • 5 μL of 1× assay buffer was dispensed to column 24 (low control) and 5 μL 2× Factor XIa solution was dispensed to columns 1-23 (column 23 high control); • the plate was centrifuged with a “cover” plate at 500 rpm for 1 min • the plate was pre-incubated for 30 minutes at room temperature with plate covered; • 5 μL of 2× 5Fam-KLTRAETV-K5Tamra peptide substrate was dispensed into the entire plate, columns 1-24; • the plate was centrifuged with a “cover” plate at 500 rpm for 1 min; • the plate was read monitoring fluorescence intensity on the BMG PHERAStar at room temperature, using fluorescence module 485 nm/520 nm.
(§1) Percent inhibition (IC50) curves were generated per compound tested, and data was analyzed using a 4-parameter logistic fit using GeneData Screener. The relative fluorescence unit (RFU) values were normalized to percent inhibition using the following equation:
[formula] • where LC—low control=mean signal of no Factor XIa or 100% inhibition of Factor XIa; HC—high control=mean signal of Factor XIa+5Fam-KLTRAETV-K5Tamra peptide substrate with DMSO only.
(§2) An 11-point dose response curve for the test compound(s) was generated using GENDATA to determine IC50 value based on the following equation:
(§3) [formula] • where Y is the % inhibition in the presence of X inhibitor concentration, Top=high control=mean signal of Factor XIa+5Fam-KLTRAETV-K5Tamra peptide substrate with DMSO only; Bottom=low control—mean signal of no Factor XIa or 100% inhibition of Factor XIa; HillSlope—Hill coefficient; and IC50=concentration of compound with 50% inhibition in relation to top/high control.
Representative compounds of formula (I) of the present invention were tested according to the procedure described in Biological Example 1 and Biological Example 2 above, with results as listed in Table 3, below. […]

human plasma kallikrein = human plasma kallikrein (Homo sapiens, UniProt P03952); experiment: Kallikrein inhibition assay utilizing a quenched AMC peptide substrate (FLINT); format: biochemical
Description: Biological Example 2: Kallikrein Inhibition Assay Utilizing a Quenched AMC Peptide Substrate
A fluorescence intensity (FLINT) based assay was used to monitor inhibition of human plasma kallikrein. The peptide substrate, Z-Gly-Pro-Arg-AMC (Purchased from Bachem; Catalog #I-1150) was chosen based on its relatively low KM for kallikrein which enables running the assay at lower substrate concentrations to control background fluorescence. The kinetic parameters for this substrate were determined by fitting titration data to the Michaelis-Menten equation yielding a KM=40 μm, kcat=0.76 s^−1, and kcat/KM=18932 M^−1s^−1.
The Kallikrein FLINT assay was used with the following Z-Gly-Pro-Arg-AMC assay buffer: 50 mM Tris, pH 7.5, 100 mM NaCl, 5 mM CaCl2, 0.1 mg/mL BSA, 0.03% CHAPS. Assay buffer was prepared by mixing all ingredients fresh. 2× Z-Gly-Pro-Arg-AMC peptide substrate was prepared by diluting 10 mM stock into 1× assay buffer for a 100 μM working concentration (50 μM final concentration). The 2× kallikrein stock solution was prepared by diluting 14.76 μM stock in 1× assay buffer for a 4 nM working stock solution (2 nM final concentration).
Test compound(s) were run in an 11-point, 3-fold serial dilution with a final top compound concentration of 1 μM. Final DMSO in assay was 2%. Plasma kallikrein was pre-incubated for 30-minute with compound and then 50 μM substrate was added to initiate the reaction. The assay was run with either end point (EP) reads at 30 min or kinetic (KIN) reads at 5 min intervals over 30 minutes. The time course was linear using 2 nM kallikrein greater than 30 minutes. More specifically, the assay was run as follows: • 100 nL of 0.1 mM test compound was dispensed into black 384-well non-binding Greiner BioOne 784900 plate for 1 μM final concentration; • 5 μL of 1× assay buffer was dispensed to columns 24 (low control) and 5 μL 2× human kallikrein enzyme solution was dispensed to columns 1-23 (column 23 high control); • the plate was centrifuged with a “cover” plate at 500 rpm for 1 min • the plate was pre-incubated for 30 minutes at room temperature with plate covered; • 5 μL of 2× Z-Gly-Pro-Arg-AMC peptide substrate was dispensed into the entire plate, columns 1-24; • the plate was centrifuged with a “cover” plate at 500 rpm for 1 min; • the plate was read monitoring fluorescence intensity on the BMG PHERAStar at room temperature, using fluorescence module 340 nm/440 nm.
as §1
% inhibition=((HC−LC)−(compound−LC)/(HC−LC))*100 • where LC—low control=mean signal of human kallikrein enzyme or 100% inhibition of human kallikrein enzyme; HC—high control=mean signal of Factor XIa+Z-Gly-Pro-Arg-AMC peptide substrate with DMSO only.
as §2
as §3, with “Y=Bottom+(Top−Bottom)/(1+10^((log IC50−X)*HillSlope))” for “[formula]”, “human kallikrein enzyme+Z-Gly-Pro-Arg-AMC” for “Factor XIa+5Fam-KLTRAETV-K5Tamra”, “human kallikrein enzyme” for “Factor XIa”, “human kallikrein enzyme;” for “Factor XIa;”
Representative compounds of formula (I) of the present invention were tested according to the procedure described in Biological Example 1 and Biological Example 2 above, with results as listed in Table 3, below. Results listed in the (ER) column were measured using endpoint reads where a single fluorescence reading was measured for each well at a 30 min timepoint. […]

[1] = kinetic reads at 5 min intervals over 30 min, read-out: FXIa (KIN) IC50
[2] = kinetic reads at 5 min intervals over 30 min, 30 min preincubation, read-out: Kallikrein (KIN) IC50
[3] = kinetic reads, unit μM, read-out: Kallikrein (KIN) IC50

Factor XIa, sequence (P03951 388-625 limits assumed): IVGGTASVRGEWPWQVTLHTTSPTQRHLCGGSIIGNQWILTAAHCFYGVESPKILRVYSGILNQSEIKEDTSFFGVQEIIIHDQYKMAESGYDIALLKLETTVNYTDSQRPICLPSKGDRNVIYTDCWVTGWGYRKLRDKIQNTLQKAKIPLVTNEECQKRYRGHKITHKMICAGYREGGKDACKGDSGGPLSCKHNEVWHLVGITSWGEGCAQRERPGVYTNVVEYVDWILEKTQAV
Factor XIa, sequence (P03951 19-387 partner limits assumed): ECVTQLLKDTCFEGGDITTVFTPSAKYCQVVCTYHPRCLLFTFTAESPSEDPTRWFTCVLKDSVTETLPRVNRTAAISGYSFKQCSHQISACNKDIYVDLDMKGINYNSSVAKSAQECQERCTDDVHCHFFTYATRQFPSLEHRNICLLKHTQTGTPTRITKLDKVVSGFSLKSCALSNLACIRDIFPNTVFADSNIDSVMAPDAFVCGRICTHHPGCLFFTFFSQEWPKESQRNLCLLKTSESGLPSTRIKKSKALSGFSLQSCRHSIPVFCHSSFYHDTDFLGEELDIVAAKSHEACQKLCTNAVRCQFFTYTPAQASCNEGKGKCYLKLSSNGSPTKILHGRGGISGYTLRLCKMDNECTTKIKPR
human plasma kallikrein, sequence (P03952 391-638 limits assumed): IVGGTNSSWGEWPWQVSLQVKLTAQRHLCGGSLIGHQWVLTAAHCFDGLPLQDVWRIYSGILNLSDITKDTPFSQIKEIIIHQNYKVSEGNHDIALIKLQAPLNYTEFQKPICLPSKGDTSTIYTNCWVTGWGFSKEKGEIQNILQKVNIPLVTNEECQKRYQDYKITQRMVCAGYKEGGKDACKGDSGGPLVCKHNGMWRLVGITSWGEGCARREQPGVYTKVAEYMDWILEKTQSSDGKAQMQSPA
human plasma kallikrein, sequence (P03952 20-390 partner limits assumed): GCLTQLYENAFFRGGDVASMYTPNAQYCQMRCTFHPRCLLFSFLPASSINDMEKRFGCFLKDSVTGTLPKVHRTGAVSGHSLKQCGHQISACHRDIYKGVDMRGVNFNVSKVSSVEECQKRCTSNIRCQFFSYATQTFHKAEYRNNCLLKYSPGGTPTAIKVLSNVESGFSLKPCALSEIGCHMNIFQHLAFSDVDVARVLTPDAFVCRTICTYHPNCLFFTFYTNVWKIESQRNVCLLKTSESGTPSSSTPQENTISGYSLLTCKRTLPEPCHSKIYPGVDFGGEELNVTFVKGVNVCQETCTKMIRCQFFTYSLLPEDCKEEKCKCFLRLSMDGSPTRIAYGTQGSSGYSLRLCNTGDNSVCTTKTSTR

Row | Structure (SMILES) | IC50 (Factor XIa; [1]) | IC50 (human plasma kallikrein; [2]) | IC50 (Factor XIa; end point read at 30 min, read-out: FXIa (EP) IC50) | IC50 (human plasma kallikrein; end point read at 30 min, 30 min preincubation, read-out: Kallikrein (EP) IC50) | IC50 (human plasma kallikrein; [3])
1 | Cn1nncc1-c1cn([C@H](CCOC(F)F)c2ccc(-c3c(-n4cc(Cl)nn4)ccc(Cl)c3F)c[n+]2[O-])cn1 [M12, (R)-5-(3-Chloro-6-(4-chloro-1H-1,2,3-triazol-1-yl)-2-fluorophenyl)-2-(3-(difluoromethoxy)-1-(4-(1-methyl-1H-1,2,3-triazol-5-yl)-1H-imidazol-1-yl)propyl)pyridine 1-oxide] | 0.3 nM | 0.0159 µM | – | – | –
2 | Cn1ncnc1-c1cn(C(CCOC(F)F)c2ccc(-c3c(-n4cc(C(F)(F)F)nn4)ccc(Cl)c3F)c[n+]2[O-])cn1 (stereo not shown) [M9, 5-(3-Chloro-2-fluoro-6-(4-(trifluoromethyl)-1H-1,2,3-triazol-1-yl)phenyl)-2-(3-(difluoromethoxy)-1-(4-(1-methyl-1H-1,2,4-triazol-5-yl)-1H-imidazol-1-yl)propyl)pyridine 1-oxide] | 4.3 nM | 0.543 µM | – | – | –
3 | Cn1nncc1-c1cn([C@@H](CCOC(F)F)c2ccc(-c3c(-n4cc(C(F)(F)F)nn4)ccc(Cl)c3F)c[n+]2[O-])cn1 [M8, (S)-5-(3-Chloro-2-fluoro-6-(4-(trifluoromethyl)-1H-1,2,3-triazol-1-yl)phenyl)-2-(3-(difluoromethoxy)-1-(4-(1-methyl-1H-1,2,3-triazol-5-yl)-1H-imidazol-1-yl)propyl)pyridine 1-oxide] | > 200 nM | – | – | – | > 20 µM
4 | [O-][n+]1cc(-c2c(-n3cnnn3)ccc(Cl)c2F)ccc1C(Cc1ccc(F)cc1)n1cnc(-c2ccncc2)c1 (stereo not shown) [M5, 5-(3-Chloro-2-fluoro-6-(1H-tetrazol-1-yl)phenyl)-2-(2-(4-fluorophenyl)-1-(4-(pyridin-4-yl)-1H-imidazol-1-yl)ethyl)pyridine 1-oxide] | 0.7 nM | 0.0017 µM | – | – | –
5 | CCC(c1ccc(-c2c(-n3cnnn3)ccc(Cl)c2F)c[n+]1[O-])n1cnc(-c2ccc(NC(=O)OC)cc2)c1 (racemic) [M4, 5-(3-Chloro-2-fluoro-6-(1H-tetrazol-1-yl)phenyl)-2-(1-(4-(4-((methoxycarbonyl)amino)phenyl)-1H-imidazol-1-yl)propyl)pyridine 1-oxide] | 12.1 nM | 0.202 µM | – | – | –
6 | COC(=O)Nc1ccc(-c2cn(C(CC3CC3)c3ccc(-c4c(-n5cnnn5)ccc(Cl)c4F)c[n+]3[O-])cn2)cc1 (stereo not shown) [M3, 5-(3-Chloro-2-fluoro-6-(1H-tetrazol-1-yl)phenyl)-2-(2-cyclopropyl-1-(4-(4-((methoxycarbonyl)amino)phenyl)-1H-imidazol-1-yl)ethyl)pyridine 1-oxide] | 8.5 nM | 0.169 µM | – | – | –

Further lines, results first:

Row | IC50 (Factor XIa; [1]) | IC50 (human plasma kallikrein; [2]) | IC50 (Factor XIa; end point read at 30 min, read-out: FXIa (EP) IC50) | IC50 (human plasma kallikrein; end point read at 30 min, 30 min preincubation, read-out: Kallikrein (EP) IC50) | IC50 (human plasma kallikrein; [3]) | Structure (SMILES)
7 | 3.4 nM | 0.312 µM | – | – | – | Cn1nncc1-c1cn([C@H](CC2CC2)c2ccc(-c3c(-n4cnnn4)ccc(Cl)c3F)c[n+]2[O-])nn1 [T6, (R)-5-(3-Chloro-2-fluoro-6-(1H-tetrazol-1-yl)phenyl)-2-(2-cyclopropyl-1-(3′-methyl-1H,3′H-[4,4′-bi(1,2,3-triazol)]-1-yl)ethyl)pyridine 1-oxide]
8 | 0.5 nM | 0.0317 µM | – | – | – | [2H]C([2H])([2H])n1nccc1-c1cn(C(CCOC(F)F)c2ccc(-c3c(-n4cc(C(F)(F)F)nn4)ccc(Cl)c3F)c[n+]2[O-])cn1 (single isomer, unassigned) [M16, (S*)-5-(3-Chloro-2-fluoro-6-(4-(trifluoromethyl)-1H-1,2,3-triazol-1-yl)phenyl)-2-(3-(difluoromethoxy)-1-(4-(1-(methyl-d3)-1H-pyrazol-5-yl)-1H-imidazol-1-yl)propyl)pyridine 1-oxide]
9 | – | – | 1.6 nM | 0.0835 µM | – | O=C(O)c1ccc(-c2cn(C(CC3CC3)c3ccc(-c4cc(Cl)ccc4-n4cnnn4)c[n+]3[O-])nn2)cc1 (stereo not shown) [T1, 2-(1-(4-(4-Carboxyphenyl)-1H-1,2,3-triazol-1-yl)-2-cyclopropylethyl)-5-(5-chloro-2-(1H-tetrazol-1-yl)phenyl)pyridine 1-oxide]
10 | 31.8 nM | 0.269 µM | – | – | – | COC(=O)Nc1ccc(-c2cn(C(CC3CC3)c3ccc(-c4c(-n5cnnn5)ccc(Cl)c4F)c[n+]3[O-])nn2)cc1 (single isomer, unassigned) [T3, (R*)-5-(3-Chloro-2-fluoro-6-(1H-tetrazol-1-yl)phenyl)-2-(2-cyclopropyl-1-(4-(4-((methoxycarbonyl)amino)phenyl)-1H-1,2,3-triazol-1-yl)ethyl)pyridine 1-oxide]
11 | > 100 nM | – | – | – | > 1 µM | [O-][n+]1cc(-c2c(-n3cc(C(F)(F)F)nn3)ccc(Cl)c2F)ccc1[C@H](CCOC(F)F)n1cc(-c2cnnn2C(F)F)nn1 [T9, (S)-5-(3-Chloro-2-fluoro-6-(4-(trifluoromethyl)-1H-1,2,3-triazol-1-yl)phenyl)-2-(3-(difluoromethoxy)-1-(3′-(difluoromethyl)-1H,3′H-[4,4′-bi(1,2,3-triazol)]-1-yl)propyl)pyridine 1-oxide]

— US20240228465A1, “SUBSTITUTED PYRIDINE N-OXIDE DERIVATIVES USEFUL AS A FACTOR XIA INHIBITORS” (Janssen Pharmaceutica NV, priority 2021, published 2024)
